According to PMC6008492, “Structure activity relationship studies on rhodanines and derived enethiol inhibitors of metallo-β-lactamases” (Bioorganic & Medicinal Chemistry, 2018):
Where two headings read alike, the source gives them in different places.

What was measured:
[1] = biological target: T1, NDM-1 (Klebsiella pneumoniae, UniProt C7C422); assay: NDM-1 inhibition, fluorogenic cephalosporin (FC5) hydrolysis; assay type: biochemical
T1 construct: made in house
Procedure: (§1) Inhibition analyses against bacterial MBLs and SBLs were performed as described previously.[22], [24], [26] Residual enzyme activities were determined for a range of inhibitor concentrations. Non-linear regression fitting of IC50 curves was carried out using a three-parameter dose–response curve in GraphPad Prism. Errors in IC50 values are expressed as: σ(logIC50)/logIC50×IC50
(§2) We first screened the inhibitors against a representative set of presently clinically important and other MBLs[22], comprising both Class B1 enzymes (NDM-1, New Delhi MBL-1; VIM-2, Verona integron–encoded MBL-2; BcII, Bacillus cereus II MBL; SPM-1, São Paulo MBL-1; IMP-1, imipenemase MBL-1) and the Class B2 MBL CphA (carbapenem hydrolysing MBL from Aeromonas hydrophila).[22] The latter MBL (CphA) only utilises one active site Zn(II) ion in catalysis, whilst the others normally use two Zn(II) ions.
Figure S4: IC50 curves for NDM-1 inhibition time courses. Residual activities were calculated from the
(§3) initial rate of FC5 hydrolysis after incubation of the enzyme with the inhibitor for 10 minutes. […]

[2] = biological target: T2, AmpC (Escherichia coli, UniProt P00811); assay: SBL inhibition, AmpC; assay type: biochemical, E. coli; details: read-out: residual activity AmpC
T2 construct: made in house
T2 sequence (P00811 20-377): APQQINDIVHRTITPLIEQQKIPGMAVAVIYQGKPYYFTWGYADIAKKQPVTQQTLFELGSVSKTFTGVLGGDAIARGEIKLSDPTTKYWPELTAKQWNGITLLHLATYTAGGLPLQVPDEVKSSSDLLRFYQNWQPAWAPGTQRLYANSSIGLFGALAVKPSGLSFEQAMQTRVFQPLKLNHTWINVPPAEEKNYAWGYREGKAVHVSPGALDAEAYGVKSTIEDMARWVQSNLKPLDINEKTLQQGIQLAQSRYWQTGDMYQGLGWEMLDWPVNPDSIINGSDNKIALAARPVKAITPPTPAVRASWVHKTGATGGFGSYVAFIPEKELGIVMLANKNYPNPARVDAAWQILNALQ
Procedure: as §1
as §2, with “ions. We also screened the inhibitors against a representative panel of SBLs from different classes (TEM-1, Temoneira β-lactamase-1, class A; CTX-M-15, cefotaxime hydrolysing β-lactamase from Munich 15, class A, extended spectrum β-lactamase (ESBL); AmpC E. coli, class C, and OXA-10, oxacillinase-10, class D).” for “ions.”
(§4) Figure S1. Residual activities of serine-β-lactamases (SBLs) upon inhibition by rhodanines and enethiols at
(§5) Inhibition of intact rhodanine on a panel of SBLs
(§6) Inhibition of intact rhodanine amide on a panel […]

[3] = biological target: T3, CTX-M-15 (Escherichia coli, UniProt Q9EXV5); assay: SBL inhibition, CTX-M-15; assay type: biochemical; details: read-out: residual activity CTX-M-15
T3 construct: made in house
T3 sequence (Q9EXV5 29-291, species assumed): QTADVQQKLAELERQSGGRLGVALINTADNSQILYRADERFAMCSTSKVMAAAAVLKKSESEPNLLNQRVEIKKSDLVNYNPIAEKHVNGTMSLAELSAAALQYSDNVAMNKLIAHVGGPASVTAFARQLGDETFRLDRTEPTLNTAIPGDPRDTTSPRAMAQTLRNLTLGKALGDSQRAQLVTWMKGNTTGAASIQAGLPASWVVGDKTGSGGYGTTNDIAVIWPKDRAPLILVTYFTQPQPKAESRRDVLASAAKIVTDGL
Procedure: as §1
as §2, with “ions. We also screened the inhibitors against a representative panel of SBLs from different classes (TEM-1, Temoneira β-lactamase-1, class A; CTX-M-15, cefotaxime hydrolysing β-lactamase from Munich 15, class A, extended spectrum β-lactamase (ESBL); AmpC E. coli, class C, and OXA-10, oxacillinase-10, class D).” for “ions.”
as §4, §5, §6

[4] = biological target: T4, VIM-2 (Escherichia coli, UniProt Q5U7L7); assay: biochemical
T4 construct: made in house
Procedure: as §1
as §2, with “ions. We also screened the inhibitors against a representative panel of SBLs from different classes (TEM-1, Temoneira β-lactamase-1, class A; CTX-M-15, cefotaxime hydrolysing β-lactamase from Munich 15, class A, extended spectrum β-lactamase (ESBL); AmpC E. coli, class C, and OXA-10, oxacillinase-10, class D).” for “ions.”
Figure S6: IC50 curves for VIM-2 inhibition time courses. Residual activities were calculated from the
as §3

[5] = biological target: T5, TEM-1 (Escherichia coli, UniProt P62593); assay: SBL inhibition, TEM-1; assay type: biochemical; details: read-out: residual activity TEM-1
T5 construct: made in house
T5 sequence (P62593 24-286 limits assumed): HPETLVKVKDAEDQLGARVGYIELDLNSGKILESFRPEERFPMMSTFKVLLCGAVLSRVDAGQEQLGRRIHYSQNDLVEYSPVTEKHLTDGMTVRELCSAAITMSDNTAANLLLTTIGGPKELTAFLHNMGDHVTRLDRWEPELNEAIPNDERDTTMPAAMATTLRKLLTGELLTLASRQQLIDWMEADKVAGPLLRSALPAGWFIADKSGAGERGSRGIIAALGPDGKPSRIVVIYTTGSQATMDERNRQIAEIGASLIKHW
Procedure: as §1
as §2, with “ions. We also screened the inhibitors against a representative panel of SBLs from different classes (TEM-1, Temoneira β-lactamase-1, class A; CTX-M-15, cefotaxime hydrolysing β-lactamase from Munich 15, class A, extended spectrum β-lactamase (ESBL); AmpC E. coli, class C, and OXA-10, oxacillinase-10, class D).” for “ions.”
as §4, §5, §6

[6] = biological target: T6, BcII (Bacillus cereus, UniProt P04190); assay: biochemical
T6 construct: made in house
T6 sequence (P04190 31-257): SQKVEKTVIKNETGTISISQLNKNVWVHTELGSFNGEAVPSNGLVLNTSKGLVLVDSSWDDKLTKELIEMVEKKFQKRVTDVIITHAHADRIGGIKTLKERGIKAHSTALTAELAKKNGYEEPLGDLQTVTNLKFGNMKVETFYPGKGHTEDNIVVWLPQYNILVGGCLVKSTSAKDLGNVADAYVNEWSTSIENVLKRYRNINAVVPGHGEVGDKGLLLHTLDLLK
Procedure: as §1, §2
Figure S2: IC50 curves for BcII inhibition time courses. Residual activities were calculated from the initial
rate of FC5 hydrolysis after incubation of the enzyme with the inhibitor for 10 minutes. […]

[7] = biological target: T7, OXA-10 (Pseudomonas aeruginosa, UniProt P14489); assay: SBL inhibition, OXA-10; assay type: biochemical; details: read-out: residual activity OXA-10
T7 construct: made in house
T7 sequence (P14489 20-266, species assumed): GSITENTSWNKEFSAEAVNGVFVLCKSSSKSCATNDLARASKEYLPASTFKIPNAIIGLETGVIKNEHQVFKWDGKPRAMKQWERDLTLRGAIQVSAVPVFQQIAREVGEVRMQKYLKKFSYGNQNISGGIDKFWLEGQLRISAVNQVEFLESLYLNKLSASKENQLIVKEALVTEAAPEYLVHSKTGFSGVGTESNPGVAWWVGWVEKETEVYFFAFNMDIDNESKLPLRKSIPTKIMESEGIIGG
Procedure: as §1
as §2, with “ions. We also screened the inhibitors against a representative panel of SBLs from different classes (TEM-1, Temoneira β-lactamase-1, class A; CTX-M-15, cefotaxime hydrolysing β-lactamase from Munich 15, class A, extended spectrum β-lactamase (ESBL); AmpC E. coli, class C, and OXA-10, oxacillinase-10, class D).” for “ions.”
as §4, §5, §6

[8] = biological target: T8, CphA (Aeromonas hydrophila, UniProt P26918); assay: CphA (subclass B2 MBL) inhibition; assay type: biochemical
T8 construct: made in house
T8 sequence (P26918 28-254): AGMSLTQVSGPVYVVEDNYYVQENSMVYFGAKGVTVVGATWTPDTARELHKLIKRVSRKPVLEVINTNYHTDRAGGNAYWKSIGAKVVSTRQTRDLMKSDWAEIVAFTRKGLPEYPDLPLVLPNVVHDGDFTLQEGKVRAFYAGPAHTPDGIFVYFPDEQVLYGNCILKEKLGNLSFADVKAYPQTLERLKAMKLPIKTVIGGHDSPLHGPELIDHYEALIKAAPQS
Procedure: as §1
as §2, with “ions. We also screened the inhibitors against a representative panel of SBLs from different classes (TEM-1, Temoneira β-lactamase-1, class A; CTX-M-15, cefotaxime hydrolysing β-lactamase from Munich 15, class A, extended spectrum β-lactamase (ESBL); AmpC E. coli, class C, and OXA-10, oxacillinase-10, class D).” for “ions.”

[9] = biological target: T9, IMP-1 (Serratia marcescens, UniProt P52699); assay: IMP-1 inhibition, fluorogenic cephalosporin (FC5) hydrolysis; assay type: biochemical
T9 construct: made in house
T9 sequence (P52699 19-246, looked up, species assumed): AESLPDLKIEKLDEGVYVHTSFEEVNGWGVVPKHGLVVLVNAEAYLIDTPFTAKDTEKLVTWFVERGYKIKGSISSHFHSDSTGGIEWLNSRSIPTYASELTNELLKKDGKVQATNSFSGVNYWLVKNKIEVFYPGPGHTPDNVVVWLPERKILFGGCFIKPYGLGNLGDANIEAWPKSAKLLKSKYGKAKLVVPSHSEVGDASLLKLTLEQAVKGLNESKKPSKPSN
Procedure: as §1, §2
Figure S3: IC50 curves for IMP-1 inhibition time courses. Residual activities were calculated from the
initial rate of FC5 hydrolysis after incubation of the enzyme with the inhibitor for 10 minutes.

[10] = biological target: SPM-1 (Pseudomonas aeruginosa, UniProt Q8G9Q0); assay: SPM-1 inhibition, fluorogenic cephalosporin (FC5) hydrolysis; assay type: biochemical
Chain of SPM-1 (Q8G9Q0 entry or part of it): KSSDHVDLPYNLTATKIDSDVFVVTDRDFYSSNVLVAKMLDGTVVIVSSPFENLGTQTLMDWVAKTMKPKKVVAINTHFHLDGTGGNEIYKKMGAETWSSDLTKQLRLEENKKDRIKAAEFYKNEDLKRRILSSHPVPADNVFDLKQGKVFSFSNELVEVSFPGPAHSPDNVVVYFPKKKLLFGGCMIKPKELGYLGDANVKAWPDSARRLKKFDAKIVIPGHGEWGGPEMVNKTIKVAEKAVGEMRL
Procedure: as §1, §2
Figure S5: IC50 curves for SPM-1 inhibition time courses. Residual activities were calculated from the
as §3

[11] = test system: MBLs (SPM-1, IMP-1, BcII, VIM-2, NDM-1); assay type: biochemical; details: for MBL inhibition, result in words: at 100 µM
Procedure: as §1
as §2, with “ions. We also screened the inhibitors against a representative panel of SBLs from different classes (TEM-1, Temoneira β-lactamase-1, class A; CTX-M-15, cefotaxime hydrolysing β-lactamase from Munich 15, class A, extended spectrum β-lactamase (ESBL); AmpC E. coli, class C, and OXA-10, oxacillinase-10, class D).” for “ions.”

[12] = 1H NMR time course stability (hydrolysis) test; assay type: physicochemical; details: 200 µM, pH 7.5, presence or absence of NDM-1, timescale of the inhibition studies
Procedure: NMR experiments were carried out using a Bruker Avance III 700 MHz machine equipped with a TCI inverse cryoprobe or a Bruker Avance III HD 600 MHz spectrometer equipped with a Prodigy cryoprobe at 298 K. Data were analysed using Bruker Topspin 3.5. Processing of spectra was done with a Lorentzian line broadening of 0.3 Hz. Chemical shifts (δ) are given as parts per million (ppm) relative to residual HDO (δH 4.70 ppm for ^1H NMR).
For rhodanine stability studies solutions were buffered in either freshly prepared NH4HCO3 (50 mM, pH 7.50) or Tris-d11 (50 mM, pH 7.50) both with NaCl (100 mM) in D2O. ML302 stock solution (50 mM in DMSO‑d6) was added to a sample to give a final concentration of 200 µM. When specified, NDM-1 was added to give a final concentration of 1 µM. The reaction was followed at 1 h intervals over 18 h (Figs. S7 and S8).
Figure S7. […] A, 10 (200 µM) in NH4HCO3 (50 mM, pH
7.5 in D2O) in the absence of NDM-1, 1H NMR time course over 18 hours; B, 10 (200 µM) in NH4HCO3 (50 mM, pH 7.5 in D2O) in the presence of NDM-1 (1 µM), 1H NMR time course over 18 hours; C, 10 (200 µM) in Tris-d11 (50 mM, pH 7.5 in D2O) in the absence of NDM-1, 1H NMR time course over 18 hours; D, 10 (200 µM) in Tris-d11 (50 mM, pH 7.5 in D2O) and in the presence of NDM-1 (1 µM), 1H NMR time course over 18 hours. […]

[13] = enethiols 6 assayed as sodium salts, 10 min incubation, read-out: IC50 NDM-1
[14] = enethiols 6 assayed as sodium salts, 10 min incubation, read-out: IC50 VIM-2 (converted)
[15] = enethiols 6 assayed as sodium salts, 10 min incubation, read-out: IC50 BcII (converted)
[16] = Table 2, read-out: IC50 versus CphA
[17] = Table 2, read-out: IC50 versus BcII
[18] = Table 2, read-out: IC50 versus SPM-1
[19] = enethiols 6 assayed as sodium salts, 10 min incubation, read-out: IC50 IMP-1 (converted)
[20] = enethiols 6 assayed as sodium salts, 10 min incubation, read-out: IC50 SPM-1 (converted)

T1 sequence (C7C422 29-270, looked up, species assumed): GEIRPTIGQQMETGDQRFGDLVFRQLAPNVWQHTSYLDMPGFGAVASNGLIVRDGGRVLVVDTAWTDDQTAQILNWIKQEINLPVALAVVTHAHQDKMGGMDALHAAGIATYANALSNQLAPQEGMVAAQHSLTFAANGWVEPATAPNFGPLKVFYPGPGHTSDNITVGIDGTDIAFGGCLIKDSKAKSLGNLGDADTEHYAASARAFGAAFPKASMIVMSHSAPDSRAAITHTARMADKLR

SMILES: O=C(O)/C(S)=C/c1c2ccccc2cc2ccccc12 [Compound 6r]
- IC50 [1, 13]: 1.7 ± 0.6 µM
- remaining activity at 200 µM [2]: ~41%
- remaining activity at 200 µM [3]: ~65%
- IC50 [4, 14]: 50 ± 1 nM
- remaining activity at 200 µM [5]: ~1%
- IC50 [6, 15]: > 50000 nM
- remaining activity at 200 µM [7]: ~47%

SMILES: O=C(O)C(S)Cc1ccccc1 (centres unmarked) [Compound 13b]
- IC50 ([1]; Table 2, read-out: IC50 versus NDM-1): 38.7 ± 4.7 µM
- IC50 ([4]; Table 2, read-out: IC50 versus VIM-2): 70 ± 2 nM
- IC50 [8, 16]: 130 ± 10 µM
- IC50 ([9]; Table 2, read-out: IC50 versus IMP-1): 50 ± 2 nM
- IC50 [6, 17]: 1400 ± 300 nM
- IC50 [10, 18]: 70 ± 1 nM

SMILES: O=C(O)/C(S)=C/c1c(Cl)cccc1Cl [Compound 6m]
- IC50 [1, 13]: 0.6 µM
- IC50 [4, 14]: 30 nM
- IC50 [8]: 0.8 ± 0.02 µM
- IC50 ([11]; lower end of the range, read-out: IC50 values from (lowest across the MBL panel)): 10 nM
- IC50 [9, 19]: 10 nM
- IC50 [6, 15]: 70 nM
- IC50 [10, 20]: 10 nM

SMILES: O=C(O)/C(S)=C/c1ccccc1 [Compound 6a]
- IC50 [1, 13]: 7.9 µM
- IC50 [4, 14]: 400 nM
- IC50 [8, 16]: 2.1 ± 0.02 µM
- IC50 [9, 19]: 300 nM
- IC50 [6, 17]: 700 ± 200 nM
- IC50 [6, 15]: 700 nM
- IC50 [10, 20]: 300 nM

SMILES: O=C(O)C(S)c1ccccc1 (centres unmarked) [Compound 13a]
- IC50 [1]: 12.9 ± 1 µM
- IC50 [4]: 40 ± 1 nM
- IC50 [8, 16]: 71 ± 1 µM
- IC50 [9]: 70 ± 3 nM
- IC50 ([6]; read-out: IC50 versus BcII): 100 nM
- IC50 [10, 18]: 50 ± 1 nM

SMILES: CN1CCN(NC(=O)CN2C(=O)/C(=C/c3c4ccccc4cc4ccccc34)SC2=S)CC1 [Compound 5r]
- remaining activity at 200 µM [2]: ~18%
- remaining activity at 200 µM [3]: ~40%
- remaining activity at 200 µM [5]: ~6%
- remaining activity at 200 µM [7]: ~47%

SMILES: CN1CCN(NC(=O)CN2C(=O)S/C(=C\c3c(Cl)ccc(Cl)c3Cl)C2=O)CC1 [Compound 10]
- IC50 [1, 13]: > 50 µM
- hydrolysis by 1H NMR (700 MHz) [12]: did not observe hydrolysis
- IC50 [4, 14]: 200 ± 20 nM
- IC50 [6, 15]: 600 ± 50 nM
- IC50 [10, 20]: 500 ± 40 nM

SMILES: O=C(O)C(O)c1ccccc1 (centres unmarked) [Mandelic acid, reference compound]
- IC50 [1]: > 100 µM
- IC50 [4]: > 100000 nM
- IC50 [8]: > 100 µM
- MBL inhibition, result in words [11]: inactive
- IC50 [9]: > 100000 nM
- IC50 [6, 17]: > 100000 nM
- IC50 [10, 18]: > 100000 nM

SMILES: O=C(O)C(O)Cc1ccccc1 (centres unmarked) [3-Phenyllactic acid, reference compound]
- IC50 [1]: > 100 µM
- IC50 [4]: > 100000 nM
- IC50 [8]: > 100 µM
- MBL inhibition, result in words [11]: inactive
- IC50 [9]: > 100000 nM
- IC50 [6, 17]: > 100000 nM
- IC50 [10, 18]: > 100000 nM

SMILES: O=C(O)/C(S)=C/c1c(Cl)ccc(Cl)c1Cl [ML302F, reference compound]
- IC50 [1, 13]: 2.4 µM
- IC50 [4, 14]: 40 nM
- IC50 ([8]; read-out: IC50 CphA): 0.2 ± 0.004 µM
- IC50 [9, 19]: 20 nM
- IC50 [6, 15]: 80 nM
- IC50 [10, 20]: 20 nM

SMILES: CN1CCN(NC(=O)CN2C(=O)/C(=C/c3ccccc3)SC2=S)CC1 [Compound 5a]
- IC50 [1, 13]: 26.7 µM
- IC50 [4, 14]: 16400 nM
- IC50 [8]: > 50 µM
- IC50 [9, 19]: 22700 nM
- IC50 [6, 15]: > 50000 nM
- IC50 [10, 20]: > 50000 nM

SMILES: CN1CCN(NC(=O)CN2C(=O)/C(=C/c3c(Cl)ccc(Cl)c3Cl)SC2=S)CC1 [ML302, reference compound]
- IC50 [1, 13]: 15.6 µM
- fold less active than ML302F, NDM-1 ([1]; ratio of IC50 values): ~15 fold
- IC50 [4, 14]: 60 nM
- IC50 ([8]; read-out: IC50 CphA): > 50 µM
- IC50 [9, 19]: 90 nM
- IC50 [6, 15]: 300 nM
- fold less active than ML302F, BcII ([6]; ratio of IC50 values): ~4 fold
- IC50 [10, 20]: 100 nM
- fold less active than ML302F, SPM-1 ([10]; ratio of IC50 values): ~5 fold
